Results as given in patent US11484529B2, “Desmethylanethole trithione derivatives for the treatment of diseases linked to mitochondrial reactive oxygen species (ROS) production” (OP2 Drugs, priority 2017, dated 2022).
Entries after “also recorded” stand apart in the source; their conditions may differ.

Tests used:
[1] = system: isolated mitochondria from rat heart; assay: Mitochondrial respiration / oxidative phosphorylation (oxygraph); format: biochemical
Protocol: Male Wistar rats (250-325 g; obtained from Janvier Labs, Le Genest-Saint-Isle, France) were killed by stunning and cervical dislocation, and the heart was quickly removed and washed in cold isolation medium containing 100 mM sucrose, 180 mM KCl, 50 mM Tris, 5 mM MgCl2, 10 mM EDTA, and 0.1% (w/v) defatted BSA (pH 7.2).
Isolation of heart mitochondria was performed in a cold chamber. Before homogenization, hearts (about 1.5 g) were minced with scissors and treated for 5 minutes in 5 mL of the same medium supplemented with protease (2 mg of bacterial proteinase type XXIV per mL of isolation buffer) with stirring. The tissue suspension was poured into a 50-mL glass Potter homogenizer, diluted with 20 mL of isolation buffer, then homogenized for 3 minutes using a motorized Teflon pestle. The homogenate was filtered through bolting cloth (Sefar Nitex) to remove debris, and centrifuged at 8,000 g for 10 minutes. The resulting pellet was rinsed with 5 mL of isolation buffer, resuspended in 25 mL of the same buffer, then subjected to low speed centrifugation (400 g) for 8 minutes. […] Protein concentration was determined by the Bradford method (Sigma, kit #B6916) using BSA as standard. […]
(§1) Oxygen consumption rates of heart mitochondria (0.1 mg/mL), incubated in the absence or presence of AOL at increasing doses (from 0 to 80 μM final concentration), were recorded polarographically under constant stirring at 25° C. using a high-resolution oximeter (Oxygraph-2K, Oroboros Instruments, Austria). […]
Isolation of heart mitochondria was performed in a cold chamber. […] Protein concentration was determined by the Bradford method (Sigma, kit # B6916) using BSA as standard. […]
as §1, with “AOX” for “AOL”, “100” for “80”

[2] = system: MPTP-treated mice; assay: Sub-chronic MPTP mouse model of Parkinson's disease, TH-positive neurons in the substantia nigra; format: in vivo; conditions: AOL 5 mg/kg i.p., 11 consecutive days; p<0.01
Protocol: In this study, the potential neuroprotective effects of AOL were assessed by counting the number of tyrosine hydroxylase (TH)-positive neurons in the substantia nigra (SN) in the sub-chronic 1-methyl-4-phenyl-1,2,3,6-tetrahydropyridine (MPTP) mouse model of Parkinson's disease. Mice were treated with AOL (5 mg/kg; i.p.) or vehicle for 11 consecutive days. MPTP (20 mg/kg; i.p.) or saline was administered on treatment days 4-8. All mice were killed on day 12 following final administration of treatment.
For vehicle conditions, the test item was dissolved in 0.5% DMSO/0.95% Tween 20 in saline while AOL was administered intraperitoneally (i.p.) at the dose of 5 mg/kg. […]
Unbiased stereological analysis was used to estimate the number of TH-immunopositive (TH+) neurons (Mercator, Explora Nova, La Rochelle, France). The boundaries of the SN were determined by examining the size and shape of the different TH+ neuronal groups. The volume was calculated by using the formula: V=ΣS td; where ΣS is the sum of surface areas, t is the average section thickness and d is the number of slices between two consecutive sections measured. […] The following formula was used to estimate the number of TH+ neurons: N=V(SN) (ΣQ−/ΣV(dis)); where N is the estimation of cell number, V is the volume of the SN, ΣQ− is the number of cells counted in the dissectors, and ΣV(dis) is the total volume of all the dissectors. […]

## Oc1ccc(-c2cc(=S)ss2)cc1 [AOX, 5-(4-hydroxyphenyl)-3H-1,2-dithiole-3-thione]
[1]; AOX 20 to 100 μM, succinate (+ rotenone)
  oxidation rate under substrate state and ATR state: increase for concentrations up to 50 μM followed by a decrease for concentrations over 50 μM
[1]; succinate (+ rotenone)
  concentrations with uncoupling effect on oxidative phosphorylation: higher than 20 μM

## COc1ccc(-c2cc(=S)ss2)cc1 [AOL, 5-(4-methoxyphenyl)-3H-1,2-dithiole-3-thione]
[2]
  increase of the number of TH+ cells in the SN compared to vehicle in MPTP-treated mice: 44%
[1]; AOL 5 to 80 μM, glutamate+malate, succinate(+rotenone) or all substrates, substrate, ADP and ATR states
  effect on mitochondrial respiration / oxidative phosphorylation: no statistical differences in mitochondrial respiration; also recorded: statistically no differences were observed
